Where “and” joins values, the source holds several entries; their conditions need not be identical. Identical values can stand only once. Like-named read-outs stand apart in the source and are kept apart here. Non-standard residues stand in square brackets, D forms with d. Residues, ends and D or L forms follow the SMILES beside them. *: point of attachment. d(hPhe) = N[C@H](CCc1ccccc1)C(=O)O; Bn = c1ccc(C*)cc1; NHOH = ON*
Key:
MMP-3 [1] = molecular target: T1, MMP-3 (Homo sapiens, UniProt P08254); conditions: at 55 nM; cited from earlier work
T1 sequence (P08254 100-272 limits assumed): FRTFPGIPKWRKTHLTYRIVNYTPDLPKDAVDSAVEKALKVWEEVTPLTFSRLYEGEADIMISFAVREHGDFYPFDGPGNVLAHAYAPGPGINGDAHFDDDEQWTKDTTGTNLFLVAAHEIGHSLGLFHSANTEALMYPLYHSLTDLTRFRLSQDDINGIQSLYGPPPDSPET

hMMP-12 [2] = molecular target: T2, hMMP-12 (Homo sapiens, UniProt P39900); conditions: read-out: IC50 for hMMP-12 inhibition; dose response (Figure 2B); cited from earlier work
T2 sequence (P39900 106-263): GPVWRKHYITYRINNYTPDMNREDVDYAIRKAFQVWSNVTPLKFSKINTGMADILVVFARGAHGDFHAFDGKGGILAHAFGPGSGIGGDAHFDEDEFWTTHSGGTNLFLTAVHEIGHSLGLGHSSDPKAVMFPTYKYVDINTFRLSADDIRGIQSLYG

MMP-14 [3] = molecular target: T3, MMP-14 (Homo sapiens, UniProt P50281); conditions: even at 1 μM; cited from earlier work
MMP-1 [4] = molecular target: T4, MMP-1 (Homo sapiens, UniProt P03956); conditions: even at 1 μM; cited from earlier work
T4 sequence (P03956 100-269 limits assumed): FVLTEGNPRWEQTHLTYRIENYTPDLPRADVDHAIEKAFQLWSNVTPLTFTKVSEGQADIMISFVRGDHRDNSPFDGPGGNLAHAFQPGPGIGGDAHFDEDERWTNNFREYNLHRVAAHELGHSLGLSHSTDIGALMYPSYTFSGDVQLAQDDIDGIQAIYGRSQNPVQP

MMP-13 [5] = molecular target: T5, MMP-13 (Homo sapiens, UniProt P45452); conditions: even at 1 μM; cited from earlier work
MMP-9 [6] = molecular target: T6, MMP-9 (Homo sapiens, UniProt P14780); conditions: even at 1 μM; cited from earlier work
T6 sequence (P14780 107-444 limits assumed): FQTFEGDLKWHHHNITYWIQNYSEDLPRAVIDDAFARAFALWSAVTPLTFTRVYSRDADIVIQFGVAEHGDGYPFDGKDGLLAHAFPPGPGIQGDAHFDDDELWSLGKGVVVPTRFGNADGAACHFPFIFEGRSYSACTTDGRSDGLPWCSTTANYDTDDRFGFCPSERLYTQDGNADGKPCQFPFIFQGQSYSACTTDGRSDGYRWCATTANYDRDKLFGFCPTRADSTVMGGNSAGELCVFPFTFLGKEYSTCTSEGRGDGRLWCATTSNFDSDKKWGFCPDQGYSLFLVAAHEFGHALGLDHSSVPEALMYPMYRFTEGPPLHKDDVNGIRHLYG

MMP-3 [7] = molecular target: T1, MMP-3; test: SensoLyte 520 Fluorimetric Assay Kit selectivity assay, MMP-3; assay type: biochemical; conditions: agents tested at 25 nM or at 4 nM (Figure 5)
MMP-9 [8] = molecular target: T6, MMP-9; test: SensoLyte 520 Fluorimetric Assay Kit selectivity assay, MMP-9; assay type: biochemical; conditions: agents tested at 25 nM or at 4 nM (Figure 5)
MMP-1 [9] = molecular target: T4, MMP-1; test: SensoLyte 520 Fluorimetric Assay Kit selectivity assay, MMP-1; assay type: biochemical; conditions: agents tested at 25 nM or at 4 nM (Figure 5)
MMP-13 [10] = molecular target: T5, MMP-13; test: SensoLyte 520 Fluorimetric Assay Kit selectivity assay, MMP-13; assay type: biochemical; conditions: agents tested at 25 nM or at 4 nM (Figure 5)
hMMP-12 [11] = molecular target: T2, hMMP-12; test: SensoLyte 520 MMP-12 Fluorimetric Assay Kit enzymatic inhibition assay; assay type: biochemical
[12] = test system: elastase-induced emphysema (lung tissue destruction); test: Murine model of elastase-induced emphysema, mean linear intercept; assay type: in vivo, C57BL/6 mice; conditions: PPE intranasal, i.p. treatment once daily for 7 days from day 2, read at day 21
MMP-14 [13] = molecular target: T3, MMP-14; test: SensoLyte 520 Fluorimetric Assay Kit selectivity assay, MMP-14; assay type: biochemical; conditions: agents tested at 25 nM or at 4 nM (Figure 5)
[14] = assay type: in vivo; conditions: 30 mg/kg i.p., Balb-C mice; converted from ng/ml
[15] = Solubility in the dosing formulation; assay type: physicochemical; conditions: 10% DMSO, 40% PEG400, and 10% (2-hydroxypropyl)-Beta-cyclodextrin in PBS

Compound | inhibition of MMP-3 (MMP-3 [7]) | inhibition of MMP-9 (MMP-9 [8]) | inhibition of MMP-1 (MMP-1 [9]) | inhibition of MMP-13 (MMP-13 [10]) | mode of hMMP-12 inhibition (hMMP-12 [11]) | emphysema-like pathology (MLI) compared to PPE + vehicle-treated mice [12] | inhibition of MMP-14 (MMP-14 [13]) | other results
CC(=O)N[C@@H](COCc1ccccc1)C(=O)N[C@H](CCc1ccccc1)C(=O)N[C@H](Cc1ccccc1)C(=O)NO [compound 1] (Ac-Ser(Bn)-[d(hPhe)]-[dF]-{NHOH}) |  |  |  |  |  |  |  | inhibition of MMP-3 (MMP-3 [1]): ~ 19%; IC50 (hMMP-12 [2]): ~30 nM and 29.7 nM; inhibition of MMP-14 (MMP-14 [3]): did not significantly inhibit; inhibition of MMP-1 (MMP-1 [4]): did not significantly inhibit; inhibition of MMP-13 (MMP-13 [5]): did not significantly inhibit; inhibition of MMP-9 (MMP-9 [6]): did not significantly inhibit
CNC(=O)[C@H](Cc1c[nH]c2ccccc12)NC(=O)[C@@H](CC(=O)NO)CC(C)C [GM6001, reference compound] | appreciable inhibition |  |  |  |  |  |  | 
COc1ccc(CCC[C@H](NC(=O)CN2CCOCC2)C(=O)N[C@H](CCc2ccc(OC)cc2)C(=O)N[C@H](Cc2ccc(C)cc2)C(=O)NO)cc1 [compound 26] | appreciable inhibition | did not display significant inhibition | did not display significant inhibition | did not display significant inhibition | competitive inhibitors | significant decrease | did not display significant inhibition | 
COC(=O)Nc1ccc2oc3cc(S(=O)(=O)N[C@H](C(=O)O)C(C)C)ccc3c2c1 [MMP408, (S)-2-(8-(methoxycarbonylamino)dibenzo[b,d]furan-3-sulfonamido)-3-methylbutanoic acid, reference compound] |  |  |  |  |  | significant decrease |  | 
COc1ccc(CC[C@@H](NC(=O)[C@H](CCCc2ccccc2)NC(=O)CN2CCOCC2)C(=O)N[C@H](Cc2ccc(C)cc2)C(=O)NO)cc1 [compound 25] | appreciable inhibition | did not display significant inhibition | did not display significant inhibition | did not display significant inhibition | competitive inhibitors | significant decrease | did not display significant inhibition | peak plasma drug concentration [14]: ~ 580 nM; solubility in formulation [15]: soluble

Reference: PMC8544245 (Journal of medicinal chemistry, 2020)
